Earlier results on three compounds are cited in patent US20230390267A1, “TREATMENT REGIMENS FOR EARLY IDIOPATHIC PARKINSON'S DISEASE” (BIAL - PORTELA & CA., S.A., priority 2020, published 2023).

Like-named read-outs stand apart in the source and are kept apart here.

One data set relates to 'stable' PD patients. As to conditions: 6 months, cited from earlier work.
For data set [1] the following is noted: cited from earlier work.
In data set [2] the test system is patients suffering from early idiopathic Parkinson's disease. As to conditions: addition of entacapone to levodopa/DDCI in early PD; cited from earlier work.
The mark [3] stands for this setting: tolcapone 100 mg three times daily.
Setting [4] is: tolcapone 200 mg three times daily.

Take `Cc1ccc(C(=O)c2cc(O)c(O)c([N+](=O)[O-])c2)cc1` [tolcapone]: in the data set with 'stable' PD patients (setting [3]), the “reduction in UPDRS Part II activities of daily living (ADL) score” value was −1.4 points and the “reduction in UPDRS motor score” value was −2.0 points. Moreover, in the data set on 'stable' PD patients (setting [4]), the “reduction in UPDRS Part II activities of daily living (ADL) score” value was −1.6 points and the “reduction in UPDRS motor score” value is reported as −2.3 points.
`N[C@@H](Cc1ccc(O)c(O)c1)C(=O)O` [levodopa]: in data set [1] (oral levodopa combined with carbidopa), the “plasma half-life of levodopa” value was 1.5 h. In addition, the “half-life of oral levodopa” value in data set [1] (when administered with DDCIs) is 1 to 1.5 h. Further, the “extent of brain penetration of levodopa” value in data set [1] (when combined with a DDCI) was 10%.
On to `CCN(CC)C(=O)/C(C#N)=C/c1cc(O)c(O)c([N+](=O)[O-])c1` [entacapone], for which the “onset of motor complications and frequency of dyskinesia” value in data set [2] is “shorter time to onset of motor complications and increased frequency of dyskinesia”.
